Source: patent US8980933B2, “Combretastatin analogs for use in the treatment of cancer” (Universitat Bayreuth, priority 2010, dated 2015)
“Also recorded” adds a separate entry of the source.

Legend:
[1] = Toxicity / tolerability in mice; format: in vivo
Description: Prior to testing compound 5b, healthy animals of this type were treated with an ascending range of doses of 5b in order to establish a toxicity profile. […] Suitable dosages were then administered in further tests in a nude mouse xenograft model of a pair of germ cell tumor cell lines, the chemoresistant cell line 1411HP and the chemosensitive cell line H12.1. These cell lines retain their individual in vitro chemosensitivities to cisplatin when grown as xenograft tumors and so may serve as a model of the clinical situation of resistance to chemotherapy (Mueller et al. Cancer Res. 2003; Mueller et al. Tumor Biol. 2006).
Compounds 5b, 6b and 6f were also tested in terms of feasibility of oral administration. Mice received a single dose of 40 mg/kg body weight of 5b, 6b or 6f, respectively. […] Then compounds 6b or 6f were given peroral as dual-dose application on two consecutive days in accordance to the i.p. treatment scheme used for the regression trials but with a 2-fold higher dose of 2×40 mg/kg body weight.

[2] = test system: HL-60 cells; test: TUNEL assay; format: cell-based, human; conditions: 10 μM; 16 h incubation
[3] = test system: 518A2 cells; test: Mitochondrial membrane assay (JC-1), 518A2; format: cell-based, human; conditions: 5 μM, red/green fluorescence ratio relative to untreated controls (100%), mean ± SD
Description: Values represent means of four independent experiments±standard deviation.
Changes in mitochondrial membrane potential were determined by the Mitochondrial Membrane Detection Kit (Stratagene, La Jolla, Calif., USA) according to the manufacturer's procedure. 72 h following treatment with 5 μM of the test compounds, cell samples were centrifuged at 400 g for 5 min. The pellets were resuspended in 500 μL diluted JC-1 solution, incubated at 37° C. for 15 min (HL-60) and then centrifuged again for 5 min at 400 g. After washing, the pellets were resuspended in 100 μL PBS and transferred into the wells of a black 96-well plate. The red (λex=585 nm, λem=590 nm) and green (λex=510 nm, λem=527 nm) fluorescence intensities were measured and their ratio was calculated.

[4] = test system: 1411HP germ cell tumor xenografts; test: Nude mouse xenograft model of resistant 1411HP; format: in vivo; conditions: for intra-tumoral hemorrhage (vascular disrupting effect): after 24 h
Description: In vivo antitumor activity and tolerability of compounds 5b and 6b of the invention were studied in a nude mouse xenograft model of the resistant germ cell tumor cell line 1411HP employing Athymic Nude-Fox n1 nu/nu mice (Harlan und Winkelmann, Borchen, Germany).
The tests were carried out as follows. The mice were kept under pathogen-free conditions, fed on an autoclaved standard diet and given free access to sterilized water. Each of five mice were administered a 150 μL phosphate buffered saline suspension of 10 million 1411HP cells into the left flank to generate subcutaneous xenograft tumors. After 4 weeks one group of two mice bearing 1411HP xenografts with a volume of ca. 1 cm^3 were injected i.p. with a single dose of 30 mg/kg body weight of 5b or 6b, respectively. Two mice in the second group with xenografts of a volume of ca. 2.5 cm^3 were injected i.p. with 20 mg/kg body weight of 5b on two consecutive days. Tumor volumes were calculated by caliper measurement using the formula a^2×b×0.5 with a being the short and b the long dimension. Body weight was assessed twice weekly and daily while under therapy.

[5] = test system: A2780 ovarian carcinoma xenografts; test: A2780 ovarian carcinoma xenograft model; format: in vivo, mouse
[6] = test system: HUVEC cells; test: Tube formation assay on matrigel; format: cell-based; conditions: 7.72 ng/mL
Description: 35 μL of media:matrigel (1:1) were added into wells of a 96-well plate and incubated at 37° C. for 30 minutes. A trypsinized HUVEC cell suspension was set to 800.000 cells/mL. In another 96-well plate 25 μL of the compound stock were serially diluted with 25 μL of media. 25 μL of compound dilutions and 25 μL of cell suspension were added to the matrigel coated 96-well plate and the cells were incubated over night. As a negative control, methanol was used as in place of the compound dilutions.

[7] = test system: KB-V1/Vbl cervical carcinoma cells; test: MTT cell growth inhibition, KB-V1/Vbl; format: cell-based, human; conditions: Pgp-overexpressing KB-V1 cells
Description: The MCF-7/Topo cells were grown in E-MEM medium (Sigma) supplemented with 2.2 g/L NaHCO3, 110 mg/L sodium pyruvate and 5% FCS. The cells were maintained in a moisture-saturated atmosphere (5% CO2) at 37° C. in 75-mL culture flasks (Nunc, Wiesbaden, Germany). They were serially passaged following trypsinisation by 0.05% trypsin/0.02% EDTA (PAA laboratories, Clbe, Germany). Mycoplasma contamination was routinely monitored, and only mycoplasma-free cultures were used.
HL-60 leukemia cells (5×10^5/mL), and cells (5×10^4/mL) of 518A2 melanoma, HT-29 colon, KB-V1/Vbl cervix and MCF-7/Topo breast carcinoma were seeded out in 96-well tissue culture plates and cultured for 24 h. […] Blank and solvent controls were treated identically. MTT in phosphate buffered saline (5 mg/mL) was added to a final concentration of 0.05% (HL-60, 518A2) or 0.1% (HT-29, KB-V1/Vbl, MCF-7/Topo). After 2 h the formazan precipitate was dissolved in 10% sodium dodecylsulfate in DMSO containing 0.6% acetic acid in the case of the HL-60 cells. For the adherent 518A2, KB-V1/Vbl, MCF-7/Topo and HT-29 cells the microplates were swiftly turned to discard the medium before adding the solvent mixture. The microplates were gently shaken in the dark for 30 min and absorbance at 570 nm and 630 nm (background) was measured with an ELISA plate reader. All experiments were carried out in quadruplicate; the percentage of viable cells was calculated as the mean±SD with controls set to 100%.

[8] = test system: 1411HP germ cell tumor cell line; test: SRB-cytotoxicity assay, 1411HP; format: cell-based, human; conditions: for effect on multi-drug resistance of 1411HP cells: compared with cisplatin
Description: The cytotoxic activity of 5b was established by standard colorimetric tests (SRB- and MTT-assays) against various tumor cell lines of different entities. For the SRB cytotoxicity assay, dose-response curves of the testicular germ cell tumor cell lines exposed to drug concentrations of 0.001-10 μM were established using the sulforhodamine-B (SRB) microcuiture colorimetric assay (Papazisis et al. Optimization of the sulforhodamine B colorimetric assay. J. Immunol. Methods 1997, 208, 151-158) and performed as described in: Müller et al. Failure of activation of caspase-9 induces a higher threshold for apoptosis and cisplatin resistance in testicular cancer. Cancer Res. 2003, 63, 513-521. Briefly, cells were seeded into 96-well plates on day 0, at cell densities previously determined to ensure exponential cell growth during the period of the experiment. On day 1, cells were treated with the drugs dissolved in medium to give the appropriate concentrations for indicated times and the percentage of surviving cells relative to untreated controls was determined on day 5.

[9] = dual-dose i.p. 20 mg/kg on two consecutive days
[10] = single dose 30 mg/kg i.p., xenografts ca. 1 cm3

SMILES	toxicity after oral administration ([1]; peroral dual-dose 2×40 mg/kg on two consecutive days)	toxicity after oral administration ([1]; single dose 40 mg/kg oral)	toxicity after oral administration ([1]; single dose 60 mg/kg peroral)	apoptotic (TUNEL-positive) cells [2]	Intact mitochondria [%] in 518A2 cells after 72 h [3] [%]	vascular disrupting effect ([4]; 1411HP xenograft model)	tumor response [4, 9]	tolerability ([4]; single dose 30 mg/kg i.p.)	intra-tumoral hemorrhage (vascular disrupting effect) [4, 10]	tumor response [4, 10]	vascular disrupting effect [5]	inhibition of tube formation [6]	IC50 concentration [7]	effect on multi-drug resistance of 1411HP cells [8]	toxicity profile ([1]; healthy mice, ascending range of doses)	duration of tumor volume stabilization ([4]; single dose application)	tolerability of repeated applications ([4]; third course of double dose 20 mg/kg i.p.)	tumor response to repeated applications ([4]; three double doses of 20 mg/kg i.p. (further on days 16/17 and 35/36))	IC50 ([8]; Homo sapiens, 1411HP (chemoresistant), 96 h) [µM]
COc1ccc(-c2c(-c3cc(Br)c(OC)c(OC)c3)ncn2C)cc1N [compound 6b, 1-methyl-5-(3-amino-4-methoxyphenyl)-4-(3-bromo-4,5-dimethoxyphenyl)-imidazole]	well tolerated and induced only a transient and marginal loss of body weight	No signs of toxicity were observed	No signs of toxicity were observed	about 60%	80 ± 9	vascular disrupting activity; also recorded: vascular disrupting in tumor xenografts	high antitumor activity to a similar extent as compound 5b	tolerated this treatment very well	strong intra-tumoral hemorrhage	transient swelling of the tumors, eventually followed by regression and slow regrowth	vascular disrupting activity	pronounced inhibition of tube formation	single-digit nanomolar range	breach of the multi-drug resistance of 1411HP cells	–	–	–	–	–
COc1ccc(-c2c(-c3cc(Cl)c(OC)c(OC)c3)ncn2C)cc1N [compound 5b, 1-methyl-5-(3-amino-4-methoxyphenyl)-4-(3-chloro-4,5-dimethoxyphenyl)-imidazole]	–	No signs of toxicity were observed	–	about 60%	80 ± 9	–	dramatic tumor regressions, leading even to a stabilization in one case	tolerated this treatment very well	strong intra-tumoral hemorrhage	transient swelling of the tumors, eventually followed by regression and slow regrowth	vascular disrupting activity	did not yield a correspondingly strong inhibition at this concentration	single-digit nanomolar range	breach of the multi-drug resistance of 1411HP cells	very well tolerated by the mice even at relatively high concentrations	stabilize the tumor volume for about two weeks	well tolerated	regressions and prolonged periods of stabilization following each of the three applications	0.03 to 0.05
